Assay: xn = mol fraction of the nth substance listed
Conditions: 101 kPa, Liquid; for viscosity: Capillary tube (Ostwald / Ubbelohde) method; for mass density: Vibrating tube method

CCCCCCn1cc[n+](C)c1.F[B-](F)(F)F [1-hexyl-3-methylimidazolium tetrafluoroborate] + CC(C)CO
Conditions	mass density [kg/m3]	viscosity [mPa·s]
293.15 K, x1 = 0.3101	989.53	18.26
293.15 K, x1 = 0.4279	1031.42	26.88
293.15 K, x1 = 0.5606	1068.28	49.75
293.15 K, x1 = 0.6901	1097.67	84.38
293.15 K, x1 = 0.8327	1123.89	138.81
293.15 K, x1 = 1	1149.05	234.68
298.15 K, x1 = 0.3101	985.83	15.47
298.15 K, x1 = 0.4279	1027.83	23.01
298.15 K, x1 = 0.5606	1064.75	37.72
298.15 K, x1 = 0.6901	1094.14	66.81
298.15 K, x1 = 0.8327	1120.44	107.94
298.15 K, x1 = 1	1145.61	178.92
303.15 K, x1 = 0.1004	870.1	5.95
303.15 K, x1 = 0.151	902.53	7.454
303.15 K, x1 = 0.2009	931.08	8.374
303.15 K, x1 = 0.3101	982.2	12.94
303.15 K, x1 = 0.4279	1024.31	18.9
303.15 K, x1 = 0.5606	1061.3	32.1
303.15 K, x1 = 0.6901	1090.76	53.77
303.15 K, x1 = 0.8327	1117.15	84.55
303.15 K, x1 = 1	1142.3	136.15
308.15 K, x1 = 0.1004	866.28	4.975
308.15 K, x1 = 0.151	898.71	6.339
308.15 K, x1 = 0.2009	927.23	7.116
308.15 K, x1 = 0.3101	978.63	10.74
308.15 K, x1 = 0.4279	1020.8	15.81
308.15 K, x1 = 0.5606	1057.79	25.74
308.15 K, x1 = 0.6901	1087.32	45.36
308.15 K, x1 = 0.8327	1113.75	67.62
308.15 K, x1 = 1	1138.95	106.65
313.15 K, x1 = 0.1004	862.42	4.108
313.15 K, x1 = 0.151	894.93	5.202
313.15 K, x1 = 0.2009	923.74	6.184
313.15 K, x1 = 0.3101	975.11	9.102
313.15 K, x1 = 0.4279	1017.21	13.43
313.15 K, x1 = 0.5606	1054.27	21.67
313.15 K, x1 = 0.6901	1083.88	37.52
313.15 K, x1 = 0.8327	1110.33	52.79
313.15 K, x1 = 1	1135.59	83.13
318.15 K, x1 = 0.1004	858.54	3.188
318.15 K, x1 = 0.151	891.18	4.388
318.15 K, x1 = 0.2009	920.15	5.281
318.15 K, x1 = 0.3101	971.5	7.758
318.15 K, x1 = 0.4279	1013.64	11.45
318.15 K, x1 = 0.5606	1050.78	18.8
318.15 K, x1 = 0.6901	1080.45	31.4
318.15 K, x1 = 0.8327	1106.94	45.07
318.15 K, x1 = 1	1132.22	69.13
323.15 K, x1 = 0.1004	854.62	2.993
323.15 K, x1 = 0.151	887.3	3.765
323.15 K, x1 = 0.2009	916.37	4.555
323.15 K, x1 = 0.3101	967.87	6.719
323.15 K, x1 = 0.4279	1010.02	9.919
323.15 K, x1 = 0.5606	1047.3	15.64
323.15 K, x1 = 0.6901	1077.03	26.31
323.15 K, x1 = 0.8327	1103.61	36.01
323.15 K, x1 = 1	1128.88	56.74
328.15 K, x1 = 0.1004	850.65	2.586
328.15 K, x1 = 0.151	883.51	3.266
328.15 K, x1 = 0.2009	912.52	3.949
328.15 K, x1 = 0.3101	964.12	5.855
328.15 K, x1 = 0.4279	1006.35	8.616
328.15 K, x1 = 0.5606	1043.79	13.62
328.15 K, x1 = 0.6901	1073.6	21.88
328.15 K, x1 = 0.8327	1100.2	29.92
328.15 K, x1 = 1	1125.5	48.36
333.15 K, x1 = 0.1004	846.65	2.21
333.15 K, x1 = 0.151	879.73	2.847
333.15 K, x1 = 0.2009	908.64	3.475
333.15 K, x1 = 0.3101	960.36	5.18
333.15 K, x1 = 0.4279	1002.74	7.6
333.15 K, x1 = 0.5606	1040.26	11.92
333.15 K, x1 = 0.6901	1070.21	18.98
333.15 K, x1 = 0.8327	1096.86	26.84
333.15 K, x1 = 1	1122.14	43.01
338.15 K, x1 = 0.1004	842.59	1.853
338.15 K, x1 = 0.151	875.79	2.526
338.15 K, x1 = 0.2009	904.74	3.056
338.15 K, x1 = 0.3101	956.56	4.566
338.15 K, x1 = 0.4279	999.08	6.374
338.15 K, x1 = 0.5606	1036.78	10.1
338.15 K, x1 = 0.6901	1066.82	15.78
338.15 K, x1 = 0.8327	1093.56	23.43
338.15 K, x1 = 1	1118.8	37.15

— the NIST ThermoML archive (doi:10.1016/j.jct.2011.12.008)
